Results published in ChEMBL document CHEMBL1250543, “Potential application of thymidylate kinase in nucleoside analogue activation in Plasmodium falciparum” (Bioorg Med Chem, 2010).

Columns and labels:
[1] = test system: Plasmodium falciparum; assay: Antimalarial activity against Plasmodium falciparum 3D7 after 48 hrs by SYBR green assay; format: functional, organism-based; conditions: 3D7, 48 h
[2] = test system: Plasmodium falciparum; assay: Antimalarial activity against Plasmodium falciparum 3D7 at 100 uM by SYBR green assay; format: functional; conditions: read-out: GI

SMILES	EC50 [1] [µM]	inhibition of growth at 100 µM [2] [%]
Cc1cn([C@@H]2C[C@H](N=[N+]=[N-])[C@@H](CO)O2)c(=O)[nH]c1=O	> 100	0
COC(=O)[C@@H](C)NP(=O)(OC[C@H]1O[C@@H](n2cc(C)c(=O)[nH]c2=O)C[C@@H]1N=[N+]=[N-])Oc1ccccc1 (stereo partly specified)	120	35
CCOC(=O)[C@H](NP(=O)(OC[C@H]1O[C@@H](n2cc(C)c(=O)[nH]c2=O)C[C@@H]1N=[N+]=[N-])Oc1ccccc1)C(C)C (stereo partly specified)	80	69
COC(=O)[C@@H](C)NP(=O)(OC[C@@H]1C=C[C@H](n2cc(C)c(=O)[nH]c2=O)O1)Oc1ccccc1 (stereo partly specified)	> 100	9
CCOC(=O)[C@H](NP(=O)(OC[C@@H]1C=C[C@H](n2cc(C)c(=O)[nH]c2=O)O1)Oc1ccccc1)C(C)C (stereo partly specified)	> 100	18
CCOC(=O)[C@H](NP(=O)(OC[C@H]1O[C@@H](n2cnc3c(=O)[nH]c(N)nc32)C[C@@H]1N=[N+]=[N-])Oc1ccccc1)C(C)C (stereo partly specified)	66	80
CCOC(=O)[C@H](NP(=O)(OC[C@H]1O[C@H](n2cc(C)c(=O)[nH]c2=O)C[C@@H]1N=[N+]=[N-])Oc1ccccc1)C(C)C (stereo partly specified)	67	78
Cc1cn([C@H]2C[C@H](N=[N+]=[N-])[C@@H](CO)O2)c(=O)[nH]c1=O [ZIDOVUDINE]	> 100	0
